Assay results taken from patent US9173879B2, “Crystalline forms of (S)-7-([1,2,4]triazolo[1,5-a ]pyridin-6-yl)-4-(3,4-dichlorophenyl)-1,2,3,4-tetrahydroisoquinoline and use thereof” (Bristol-Myers Squibb Company, priority 2009, dated 2015).
Where a name gives a salt, the structure may show the parent alone.

Columns and labels:
[1] = tested on: SERT; assay: Occupancy assay, ex vivo binding in brain tissue, SERT; conditions: dose 1 mg/kg, time point 3 hour
From the text: (§1) The general procedure for brain tissue collection and transporter occupancy assessment is briefly described as follows. Mice were sacrificed by asphyxiation in CO2, rats by decapitation and dogs by IV injection of euthanasia solution. For mice and rats, after the brains were removed from the skull, the forebrain tissue (removal of the brainstem and cerebellum) was used for SERT, NET, and DAT occupancy assessment. In dogs, the striatum was dissected for DAT occupancy and the remaining forebrain tissue (without the striatum, brainstem, and cerebellum) was used for SERT and NET occupancy assessment. The brain tissues were frozen in chilled isopentane and stored at −80° C. until homogenization.
(§2) The brain tissues were thawed and then homogenized using a polytron homogenizer (Kinematica). Sample aliquots were frozen immediately and stored at −80° C. Protein content was measured for each sample using a Coomassie protein assay kit (Pierce).
(§3) On the day of ex vivo binding for occupancy assessment, frozen sample aliquots were thawed and needle homogenized, and 100 μg of the tissue was incubated for SERT, NET, and DAT binding under assay conditions summarized in Table 1. […] Radioligand was measured using a Wallac Microbeta liquid scintillation counter.
(§4) The specific binding was calculated by subtracting the value of the non-specific binding from that of the total binding in each sample. […]

[2] = target: hSERT (Homo sapiens (Human), UniProt P31645); assay: SERT radioligand binding assay ([125I]RTI-55, HEK-293 membranes)
Experimental: (§5) Recombinant HEK-293 cells expressing either the hSERT, hDAT, or hNET proteins were harvested from T-175 flasks as follows. The medium was removed from the flasks and the cells rinsed with HBSS without Ca and without Mg. The cells were then incubated for 5-10 minutes in 10 mM Tris-Cl, pH 7.5, 5 mM EDTA before the cells were lifted with a combination of pipetting and scraping, as needed. The cell suspension was collected into centrifuge bottles and homogenized for 30 seconds with a Polytron homogenizer. The suspension was centrifuged for 30 minutes at 32,000×g, 4° C. The supernatant was decanted and the pellet resuspended and homogenized in 50 mM Tris-Cl, pH 7.5, 1 mM EDTA for 10 seconds. The suspension was then centrifuged again for 30 minutes at 32,000×g, 4° C. The supernatant was decanted and the pellet resuspended in 50 mM Tris-Cl, pH 7.5, 1 mM EDTA and briefly homogenized. A Bradford assay (Bio-rad) was performed and the membrane preparation diluted to 2 mg/ml with 50 mM Tris-Cl, pH 7.5, 1 mM EDTA. […]
Compounds were dissolved in 100% DMSO at a concentration 100 times the desired highest assay concentration, serially diluted 1:3 in 100% DMSO, and 0.4 μl/well of each solution was dispensed to a Nunc polypropylene, round bottom, 384-well plate. […] The plates were air-dried overnight, 12 μl/well of MicroScint scintillation fluid added, and the plates counted in a Trilux. […]

[3] = tested on: DAT; assay: Occupancy assay, ex vivo binding in brain tissue, DAT; conditions: dose 1 mg/kg, time point 3 hour
From the text: as §1, §2, §3, §4

[4] = target: hDAT (Homo sapiens (Human), UniProt Q01959); assay: DAT radioligand binding assay ([125I]RTI-55, HEK-293 membranes)
Experimental: as §5, with “seconds.” for “seconds. The suspension was then centrifuged again for 30 minutes at 32,000×g, 4° C. The supernatant was decanted and the pellet resuspended in 50 mM Tris-Cl, pH 7.5, 1 mM EDTA and briefly homogenized. A Bradford assay (Bio-rad) was performed and the membrane preparation diluted to 2 mg/ml with 50 mM Tris-Cl, pH 7.5, 1 mM EDTA.”
Compounds were dissolved in 100% DMSO at a concentration 100 times the desired highest assay concentration, serially diluted 1:3 in 100% DMSO, and 0.4 μl/well of each solution was dispensed to a Nunc polypropylene, round bottom, 384-well plate. […] The plates were air-dried overnight, 12 μl/well of MicroScint scintillation fluid added, and the plates counted in a Trilux.
(§6) The raw data was normalized to percent inhibition using control wells defining 0% (DMSO only) and 100% (selective inhibitor) inhibition which were run on each plate. […] The radioligand concentration chosen for each assay corresponds to the Kd concentration determined through saturation binding analysis for each assay.

[5] = tested on: NET; assay: Occupancy assay, ex vivo binding in brain tissue, NET; conditions: dose 1 mg/kg, time point 3 hour
From the text: as §1, §2, §3, §4

[6] = target: hNET (Homo sapiens (Human), UniProt P23975); assay: NET radioligand binding assay ([3H]nisoxetine, HEK-293 membranes)
Experimental: as §5, with “seconds.” for “seconds. The suspension was then centrifuged again for 30 minutes at 32,000×g, 4° C. The supernatant was decanted and the pellet resuspended in 50 mM Tris-Cl, pH 7.5, 1 mM EDTA and briefly homogenized. A Bradford assay (Bio-rad) was performed and the membrane preparation diluted to 2 mg/ml with 50 mM Tris-Cl, pH 7.5, 1 mM EDTA.”
Compounds were dissolved in 100% DMSO at a concentration 100 times the desired highest assay concentration, serially diluted 1:3 in 100% DMSO, and 1.0 μl/well of each solution was dispensed to a Nunc polypropylene, round bottom, 384-well plate. […] The plates were air-dried overnight, 12 μl/well of MicroScint scintillation fluid added, and the plates counted in a Trilux.
as §6

[7] = Mouse tail suspension assay; assay type: in vivo; conditions: male Swiss Webster mice, acute administration
Experimental: Male Swiss Webster mice were housed 3-4 per cage in rooms maintained at a constant temperature (21-23° C.) and humidity (50±10%) on a 12-hour light/dark cycle. Animals had ad libitum access to water and food throughout studies. On the day of testing, they were brought into the testing room and allowed to acclimate for 1 hour. To begin testing, the tail was attached to a piece of tape which was then attached to a hook on the ceiling of a sound-attenuated chamber. Immobility was automatically recorded using the Med Associates software. Compounds were administered acutely at a fixed pretreatment interval before session.

hDAT, sequence (Q01959 whole entry): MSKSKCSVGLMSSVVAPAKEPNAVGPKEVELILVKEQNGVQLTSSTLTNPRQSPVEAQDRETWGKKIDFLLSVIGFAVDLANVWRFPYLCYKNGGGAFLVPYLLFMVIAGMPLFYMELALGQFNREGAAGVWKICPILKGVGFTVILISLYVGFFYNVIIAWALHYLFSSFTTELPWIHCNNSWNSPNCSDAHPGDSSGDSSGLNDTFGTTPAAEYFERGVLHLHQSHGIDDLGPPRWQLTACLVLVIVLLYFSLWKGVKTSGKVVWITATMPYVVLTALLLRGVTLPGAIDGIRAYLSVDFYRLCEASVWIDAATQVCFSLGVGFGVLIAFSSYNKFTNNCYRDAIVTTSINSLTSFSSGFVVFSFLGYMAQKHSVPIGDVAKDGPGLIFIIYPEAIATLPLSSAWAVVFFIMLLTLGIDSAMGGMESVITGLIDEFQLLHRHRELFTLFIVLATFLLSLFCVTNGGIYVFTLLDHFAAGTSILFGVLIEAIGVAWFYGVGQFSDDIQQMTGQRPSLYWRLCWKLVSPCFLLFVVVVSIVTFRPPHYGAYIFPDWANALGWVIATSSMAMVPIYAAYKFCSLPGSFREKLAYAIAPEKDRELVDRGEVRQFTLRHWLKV
hNET, sequence (P23975 whole entry): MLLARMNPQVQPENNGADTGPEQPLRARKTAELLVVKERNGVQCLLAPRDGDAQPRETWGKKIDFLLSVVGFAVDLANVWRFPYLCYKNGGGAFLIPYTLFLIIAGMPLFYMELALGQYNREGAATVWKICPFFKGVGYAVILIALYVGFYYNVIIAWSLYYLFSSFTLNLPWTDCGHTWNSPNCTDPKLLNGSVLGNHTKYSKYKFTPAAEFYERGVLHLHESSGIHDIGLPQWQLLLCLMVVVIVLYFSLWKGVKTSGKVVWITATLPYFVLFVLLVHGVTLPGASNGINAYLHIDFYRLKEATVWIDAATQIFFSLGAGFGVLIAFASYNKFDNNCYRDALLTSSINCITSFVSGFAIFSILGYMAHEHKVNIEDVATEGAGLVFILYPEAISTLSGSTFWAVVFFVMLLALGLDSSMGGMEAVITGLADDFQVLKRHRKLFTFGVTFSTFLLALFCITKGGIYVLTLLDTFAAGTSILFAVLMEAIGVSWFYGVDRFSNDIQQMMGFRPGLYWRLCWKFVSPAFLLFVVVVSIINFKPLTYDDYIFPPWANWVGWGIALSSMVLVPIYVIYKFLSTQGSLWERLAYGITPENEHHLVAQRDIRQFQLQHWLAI

Compound	SERT Occupancy % [1]	IC50 [2]	DAT Occupancy % [3]	IC50 [4]	NET Occupancy % [5]	IC50 [6]	minimum effective dose in the mouse tail suspension study [7]
Clc1ccc(C2CNCc3cc(-c4ccc5ncnn5c4)ccc32)cc1Cl (single isomer, unassigned; enantiomer 7) [Example 1 (−)-enantiomer, 7-([1,2,4]triazolo[1,5-a]pyridin-6-yl)-4-(3,4-dichlorophenyl)-1,2,3,4-tetrahydroisoquinoline]	41%	4.2 nM	30%	105 nM	33%	4.8 nM	–
Clc1ccc(C2CNCc3cc(-c4ccc5ncnn5c4)ccc32)cc1Cl (single isomer, unassigned; (+)) [Example 1 (+)-enantiomer, (+)-7-([1,2,4]triazolo[1,5-a]pyridin-6-yl)-4-(3,4-dichlorophenyl)-1,2,3,4-tetrahydroisoquinoline, L-tartrate salt]	75%	–	26%	–	11%	–	10 mg/kg
